The values below come from patent US8501693B2, “Use of exendins and exendin agonists and GLP-1 receptor agonists for altering the concentration of fibrinogen” (Amylin Pharmaceuticals, LLC, priority 2006, dated 2013).

The test system of assay [1] is lipoprotein subclass particles (LDL, HDL, VLDL). The experiment in a line: Lipoprotein subclass particle concentration and particle size by proton NMR in the 1-year open-label exenatide vs biphasic insulin aspart trial. The class given is in vivo, human. Conditions: change from baseline to endpoint. The method, then: Lipoprotein subclass particle concentrations and average particle diameters are measured using proton nuclear magnetic resonance spectroscopy.
The particle concentrations of different lipoprotein subclasses are obtained by measuring the amplitudes of the characteristic lipid methyl NMR signals. The signal amplitudes of various subclasses are extracted from the overall lipid methyl group signal with a spectral deconvolution algorithm (LipoScience, Inc.). See e.g., Festa. VLDL and LDL particle concentrations are given in nanomoles per liter. HDL particle concentrations are provided in micromoles per liter.
Average particle sizes (in nanometers diameter) are computed as the sum of the diameter of the particle subclass multiplied by the relative mass percentage of the subclass as estimated from the amplitude of its methyl NMR signal.
Particle concentrations and sizes are compared before and after administration of an exendin or exendin agonist. See e.g., Table 1.

Another assay relates to Fibrinogen. The experiment in a line: Fibrinogen concentration by the von Clauss clotting method in the 1-year open-label exenatide vs biphasic insulin aspart trial. The class given is in vivo, human. The note with it: patients with type 2 diabetes. The method, then:
For test meal data, postprandial glucose incremental AUC0-4h is calculated at baseline and week 52.
Fibrinogen activity is measured by the von Clauss clotting method. By the von Clauss clotting method, thrombin is added to a test sample and the time until clotting is measured. Fibrinogen concentration is determined by comparing clotting time for the test sample to the clotting time of a standard curve for various reference plasmas.
Fibrinogen is measured at baseline, Week 16, Week 52, or at early termination of the study.

Where [2] appears, read: patients with type 2 diabetes, fasting.
The mark [3] stands for this setting: particle concentration, patients with type 2 diabetes.

For the substance biphasic insulin aspart 30/70, the “LDL Particle Size Δ mean (SEM)” value in assay [1] (patients with type 2 diabetes inadequately controlled by sulphonylurea and metformin, fasting) is “+0.11 (0.12) p = .356 nm”. For the same substance, in assay [1] (setting [2]), the “HDL Particle Size Δ mean (SEM)” value is on record as “+0.04 (0.05) p = .391 nm” and the “VLDL Particle Size Δ mean (SEM)” value is listed as −1.6 (2.2) p = .482 nm. In addition, in assay [1] (setting [3]), the “Large HDL Δ mean (SEM)” value is “+1.0 (0.4) p = .014 μmol/L”, the “Large LDL Δ mean (SEM)” value is reported as “+37.7 (32.8) p = .258 nmol/L”, the “Small LDL Δ mean (SEM)” value is recorded as −25.8 (81.2) p = .753 nmol/L and the “Small VLDL Δ mean (SEM)” value is recorded as “+8.5 (4.2) p = .049 nmol/L”. In assay [1] (setting [3]), the “Total HDL Δ mean (SEM)” value is given as “+2.5 (0.9) p = .012 μmol/L”, the “Total LDL Δ mean (SEM)” value is reported as “+5.0 (75) p = .947 nmol/L”, the “Total VLDL Δ mean (SEM)” value was “+12.9 (6.6) p = .056 nmol/L” and the “Very Small LDL Δ mean (SEM)” value is reported as −17.0 (64.6) p = .794 nmol/L. Besides, in the assay on Fibrinogen (Baseline (before treatment) of the treatment group), the “Fibrinogen level, Mean, Baseline” value stood at 4.22 g/L. For the same substance, the “Fibrinogen level, Mean, Endpoint (LOCF)” value in the assay with Fibrinogen (Endpoint, last post-baseline measurement carried forward (Week 16, Week 52 or early termination)) was determined as 4.16 g/L.
